Results reported in ChEMBL document CHEMBL1201862, “PubChem BioAssay data set” (2004).
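The compound was tested at five concentrations on cells cultured in 96-well plates, with a 48-hour exposure period. GI50: concentration for 50% inhibition of growth.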 Calls of active or inactive are those of the source. Cut-off read from the data, not from the text of the source: active = GI50 up to about 1.1 µM and inactive = higher.

Key:
Assay in all cases: NCI anticancer screen, dose series, 48 h
[1] = tested on: Malme-3M
[2] = tested on: SK-MEL-5
[3] = tested on: HCC 2998
[4] = tested on: KM12
[5] = tested on: A498
[6] = tested on: SN12C
[7] = tested on: HT-29
[8] = tested on: OVCAR-5
[9] = tested on: OVCAR-8
[10] = tested on: RPMI-8226
[11] = tested on: COLO 205
[12] = tested on: DLD-1
[13] = tested on: NCI-H522
[14] = tested on: UO-31
[15] = tested on: HL-60
[16] = tested on: SW-620
[17] = tested on: SNB-19
[18] = tested on: RXF 393

Measured: GI50

COc1ccc(C2NC3=C(CCCC3)N2)cc1
inactive: [1] 40.4 µM | [2] 27.2 µM | [3] > 100 µM | [4] 54.3 µM | [5] 79.4 µM | [6] > 100 µM | [7] 42.9 µM | [8] 80.2 µM | [9] > 100 µM | [10] > 100 µM | [11] 34 µM | [12] 88.1 µM | [13] 40.2 µM | [14] 77.6 µM | [15] 29 µM

O/N=C\C(=N/O)Nc1ccc(Cc2ccc(NC(/C=N\O)=N/O)cc2)cc1
inactive: [1] 24.7 µM | [2] 48.3 µM | [3] 83.9 µM | [4] 54 µM | [5] 77.4 µM | [16] 52.1 µM | [6] 35.3 µM | [7] 60.5 µM | [8] 89.9 µM | [9] 36.1 µM | [10] 30.5 µM | [11] 54.7 µM | [12] 23.9 µM | [13] 29.6 µM | [14] 13.2 µM | [15] 22.5 µM | [17] 97.9 µM

O=C1C(=O)N(c2ccc(Cl)cc2)C(=O)/C(=N/c2cccc3c(=O)[nH][nH]c(=O)c23)C1c1nc2ccccc2o1 (centres undefined)
inactive: [1] > 100 µM | [2] > 100 µM | [3] > 100 µM | [4] > 100 µM | [5] > 100 µM | [16] > 100 µM | [6] > 100 µM | [7] > 100 µM | [8] > 100 µM | [9] > 100 µM | [10] > 100 µM | [11] > 100 µM | [12] > 100 µM | [14] > 100 µM | [15] > 100 µM | [17] 84.9 µM

O=C(CCc1cc(-c2ccccc2)nc(S)n1)N(Cc1ccccc1)Cc1ccccc1
inactive: [1] > 100 µM | [3] > 100 µM | [4] > 100 µM | [5] > 100 µM | [16] > 100 µM | [6] > 100 µM | [7] > 100 µM | [8] > 100 µM | [9] > 100 µM | [10] > 100 µM | [11] > 100 µM | [12] > 100 µM | [13] > 100 µM | [14] > 100 µM | [15] > 100 µM | [17] > 100 µM

COc1ccc(/C=N/NC(=O)CSc2nc(-c3ccccc3)c(-c3ccccc3)[nH]2)cc1OC
inactive: [1] 19.5 µM | [2] 17.5 µM | [4] 17.2 µM | [5] 26.6 µM | [16] 29.9 µM | [6] 30.1 µM | [7] 29.8 µM | [8] 22 µM | [9] 16.2 µM | [10] 20.3 µM | [11] 21.2 µM | [12] 42.6 µM | [13] 19.7 µM | [18] 20.1 µM | [14] 25.5 µM | [15] 20.3 µM | [17] 34.5 µM

CCCCCCCCCCC(O)CCCCCCC(=O)O (centres undefined)
inactive: [1] 26.2 µM | [2] 16 µM | [4] 16.3 µM | [5] 23.2 µM | [16] 29.9 µM | [6] 21.1 µM | [7] 19.9 µM | [8] 29.4 µM | [9] 16.2 µM | [10] 10.2 µM | [11] 15.7 µM | [12] 19.3 µM | [13] 24.5 µM | [18] 34.1 µM | [14] 29.9 µM | [15] 8.05 µM | [17] 48.8 µM

COc1ccc(C2S/C(=C\c3ccccc3O)C(=O)N2NC(=O)Cc2ccccc2)cc1 (centres undefined)
inactive: [1] > 100 µM | [2] > 100 µM | [4] > 100 µM | [5] > 100 µM | [16] > 100 µM | [6] > 100 µM | [7] > 100 µM | [8] > 100 µM | [9] 83.2 µM | [10] 48.5 µM | [11] > 100 µM | [12] > 100 µM | [13] > 100 µM | [18] 61.7 µM | [14] > 100 µM | [15] 60.5 µM
